This is an account of results in US20130224164A1, “Environmental Clostridial Bacteriotherapy and Related Formulations and Methods of Manufacture and Use” (VIROPHARMA INCORPORATED, priority 2010, published 2013).

For the series, the system named is healthy subjects ≧60 years of age. The experiment in a line: Adverse events during oral vancomycin pre-treatment period of the Phase 1 study. Format: in vivo, human. The protocol:
VP20621 (10^4, 10^6, or 10^8 spores) or placebo were administered as a single dose to subjects age 18-45 (Group 1) or ≧60 years of age (Group 2). In Group 3, an oral suspension of 10^8 spores or placebo was administered twice daily for five days to patients≧60 years in age. In Group 4, subjects≧60 years of age received 5 days of oral vancomycin followed by 14 days of once daily VP20621 (10^4, 10^6, or 10^8 spores) or placebo. All subjects were followed through day 28. C. difficile stool cultures were performed at various time points. C. difficile isolates were tested for the production of toxin by enzyme immunoassay.
Purified VP 20621 (spores of a non-toxigenic strain of C. difficile) were produced in a liquid culture medium free of animal-derived components. VP 20621 was administered as an oral liquid suspension. The potency of the drug is based on the viable count of the spores.
Forty-three (43) subjects were pre treated with vancomycin to ensure that a sufficient number of subjects would be available for randomization to achieve the planned target sample size of 36. Twelve (28%) of the 43 subjects had adverse events during the vancomycin pre treatment period (Table 1).

[1] abbreviates: vancomycin pre-treatment, N = 43.

Regarding `CN[C@H](CC(C)C)C(=O)N[C@H]1C(=O)N[C@@H](CC(N)=O)C(=O)N[C@H]2C(=O)N[C@H]3C(=O)N[C@H](C(=O)N[C@H](C(=O)O)c4cc(O)cc(O)c4-c4cc3ccc4O)[C@H](O)c3ccc(c(Cl)c3)Oc3cc2cc(c3O[C@@H]2O[C@H](CO)[C@@H](O)[C@H](O)[C@H]2O[C@H]2C[C@](C)(N)[C@H](O)[C@H](C)O2)Oc2ccc(cc2Cl)[C@H]1O` [Vancomycin, vancomycin], the “Subjects with a gastrointestinal adverse effect” value (Group 4, during pre-treatment with vancomycin) was determined as 16%. Moreover, the “Subjects with mild diarrhea or loose/watery stools” value (Group 4, during pre-treatment with vancomycin (3/43)) was determined as 7%. The “Subjects with adverse events” value (vancomycin pre treatment period, twelve of 43 subjects) is 28%. In addition, under setting [1], the “Gastrointestinal AEs: Abdominal distention” value is 1 (2%), the “Gastrointestinal AEs: Abdominal pain” value is 2 (5%), the “Gastrointestinal AEs: Flatulence” value is on record as 1 (2%) and the “Gastrointestinal AEs: Gingival bleeding” value is listed as 1 (2%). Also, under setting [1], the “Gastrointestinal AEs: Oral paresthesia” value is reported as 1 (2%), the “Gastrointestinal AEs: Toothache” value is listed as 1 (2%), the “Gastrointestinal AEs: Vomiting” value is on record as 1 (2%) and the “Other AEs: Dizziness” value is recorded as 2 (5%). For the same compound, under setting [1], the “Other AEs: Dry skin” value is recorded as 1 (2%), the “Other AEs: Malaise” value is given as 1 (2%), the “Other AEs: Pruritis” value is on record as 1 (2%) and the “Other AEs: Rash” value is 1 (2%). Further, the “Gastrointestinal AEs: Diarrhea” value (vancomycin pre-treatment, oral 125 mg QID Days −5 to −1, N = 43) is 3 (7%).
